Values quoted from earlier work, collected in patent US20220175695A1, “FORTIFICANT COMPOSITION” (Conopco, Inc., d/b/a UNILEVER, priority 2019, published 2022).

Details: without the composition

## Vitamin A
  time Vitamin A is stable in the presence of water: < 4 h
